Like-named read-outs stand apart in the source and are kept apart here.
How the values were obtained:
FDHC23S+AzoRo [1] = conditions: 150 μM NADH; 50 μM FMN; 50 mM phosphate pH 7; 25 °C; apparent; AzoRo part
FDHC23S+AzoRo [2] = conditions: 150 μM NADH; 50 μM FMN; 50 mM phosphate pH 7; 25 °C; apparent; AzoRo part; remark: listed apart in the source
FDHC23S+AzoRo [3] = conditions: 1 mM NAD+; 50 mM phosphate pH 7; 25 °C; apparent; FDH part

CC(=O)Nc1ccc(S(=O)(=O)O)c2cc(S(=O)(=O)O)c(N=Nc3ccc(N=Nc4ccc(S(=O)(=O)O)cc4)c4ccc(S(=O)(=O)O)cc34)c(O)c12 [compound 5, Brilliant Black BN]
Km (FDHC23S+AzoRo [1]): 6.01 ± 1.39 µM

CN(C)c1ccc(/N=N/c2ccccc2C(=O)O)cc1 [compound 1, methyl red]
Km (FDHC23S+AzoRo [2]): 73.9 ± 47.5 µM

O=CO [Formate]
Km (FDHC23S+AzoRo [3]): 48900 ± 4880 µM

Reference: PMC9305538 (Chembiochem, 2022)
